Measurements as given in US9850273B2, “Combination of estrogens plus antiprogestins with significant partial agonistic effect as an effective treatment of menopausal symptoms and for prevention of the occurrence of breast cancer” (Evestra, Inc., priority 2014, dated 2017).
pEC50, pIC50: −log10 of the molar value. Read-outs that look alike come from different tables or passages of the source.

How the values were obtained:
progesterone receptor [1] = target: T1, progesterone receptor (Homo sapiens, UniProt P06401); assay: PR transactivation assay, antagonistic activity (PR luciferase reporter); format: cell-based
T1 sequence (P06401 165-933 limits assumed): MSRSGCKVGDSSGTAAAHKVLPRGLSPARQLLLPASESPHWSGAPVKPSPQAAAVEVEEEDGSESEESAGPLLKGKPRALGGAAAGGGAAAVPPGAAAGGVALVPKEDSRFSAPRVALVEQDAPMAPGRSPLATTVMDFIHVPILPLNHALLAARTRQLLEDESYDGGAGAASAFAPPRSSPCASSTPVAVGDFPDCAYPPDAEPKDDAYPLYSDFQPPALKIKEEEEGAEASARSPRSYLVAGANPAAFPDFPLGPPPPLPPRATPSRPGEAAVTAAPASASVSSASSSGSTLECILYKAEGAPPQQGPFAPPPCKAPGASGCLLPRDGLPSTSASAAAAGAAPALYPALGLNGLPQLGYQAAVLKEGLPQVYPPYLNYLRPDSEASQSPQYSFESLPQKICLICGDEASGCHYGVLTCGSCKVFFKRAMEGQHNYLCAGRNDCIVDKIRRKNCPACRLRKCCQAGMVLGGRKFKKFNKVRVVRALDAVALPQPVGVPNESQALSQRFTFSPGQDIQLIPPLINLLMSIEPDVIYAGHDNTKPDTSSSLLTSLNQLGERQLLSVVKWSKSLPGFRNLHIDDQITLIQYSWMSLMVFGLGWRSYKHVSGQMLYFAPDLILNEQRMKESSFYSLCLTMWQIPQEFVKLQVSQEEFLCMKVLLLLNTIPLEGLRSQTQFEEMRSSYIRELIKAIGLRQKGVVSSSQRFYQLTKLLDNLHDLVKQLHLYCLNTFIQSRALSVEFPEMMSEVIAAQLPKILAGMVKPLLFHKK
Protocol: (§1) Transactivation Assay for Progesterone Agonist and Antagonistic Activity (See Table 1).
(§2) Experimental: PR transactivation studies was carried out in human breast cancer (T47D) cells, grown in RPMI medium without phenol red and 5% charcoal stripped fetal bovine serum, transiently transfected with PR luciferase reporter (CCS-6043L signal reporter assay kit, Qiagen). The cells were stimulated R5020 as PR agonist and treated in the presence or absence of the tested compounds for 24 hours.

[2] = system: ovariectomized C57BL/6 mice; assay: Mammary gland whole mount analysis in ovariectomized mice; format: in vivo, mouse; settings: 0.1 and 1.0 mg/kg with E2, 4 weeks
Protocol: (§3) In order to determine the in vivo estrogenic action of EC313 in uterine weight and benign breast development, we have used standard uterine weight bioassay and mammary gland whole mount analysis in ovariectomized mice. […] Five different measurements were obtained from each whole-mount image. Ductal length (millimeters) was measured by drawing and measuring a straight line caliper from the most distal point of the ductal network to the nipple and end buds were identified as large bulbous profiles located at the termini of ducts. […] The reduced estrogenic effect by the treatment of EC313 was further confirmed by the gene expression studies.
(§4) Whole mounts of mammary glands of overictomized C57BL/6 mice treated with E2, EC313 0.1 and 1.0 mg/kg. Magnification—upper panel—10×, lower panel—20×. B, Uterine weight of mice treated for 4 weeks with E2, EC313 0.1 and 1.0 mg/kg. Data represented are average uterine weight in milligrams±SD (*P<0.001 vs E2-control). C-D, Total duct length and terminal end bud counts in the mammary gland whole mounts after 4 weeks of the treatment with test compounds (*P<0.001 vs E2-control).

[3] = system: estradiol-primed immature female rabbits; assay: McPhail and anti-McPhail tests in rabbits; format: in vivo, rabbit
Description: The McPhail test in the immature female rabbit is a well-established model to test progestatational and antiprogestational activity [McPhail 1934).

[4] = system: ovariectomized C57BL/6 mice; assay: Gene expression in mammary glands of ovariectomized mice; format: in vivo, mouse
Protocol: as §3
Gene expression in mammary glands of ovariectomized C57BL/6 mice treated with E2, EC313 0.1 and 1.0 mg/kg. Columns are average of relative amount (ΔΔCt) of tested mRNA±SD (n=6) (**P<0.01 vs E2-control, *P<0.001 vs E2-control).

guinea pig [5] = assay: Guinea pig model (ovulation inhibition, uterine weight, vagina, ovary, classification); format: in vivo
[6] = system: ovariectomized C57BL/6 mice; assay: Uterine weight bioassay in ovariectomized mice; format: in vivo, mouse; settings: combined with E2, 4 weeks
Protocol: as §3, §4

guinea pig [7] = settings: in vivo; cited from earlier work
progesterone receptor [8] = target: T2, progesterone receptor (Homo sapiens, UniProt P06401); assay: PR transactivation assay, agonistic activity (PR luciferase reporter); format: cell-based; settings: T47D cells
T2 sequence (P06401 679-933 limits assumed): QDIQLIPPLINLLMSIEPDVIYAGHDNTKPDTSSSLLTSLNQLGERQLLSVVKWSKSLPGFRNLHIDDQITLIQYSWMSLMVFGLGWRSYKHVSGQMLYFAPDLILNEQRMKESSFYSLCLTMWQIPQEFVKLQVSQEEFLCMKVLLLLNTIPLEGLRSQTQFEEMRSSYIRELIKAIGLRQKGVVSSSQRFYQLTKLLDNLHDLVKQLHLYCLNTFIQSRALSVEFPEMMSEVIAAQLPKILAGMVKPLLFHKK
Protocol: as §1
as §2, with “hours. The effect was calculated using dual luciferase assay kit (Promega, WI)) based on RU486 as full antagonist and R5020 as agonist for progesterone receptor.” for “hours.”

C[C@]12C[C@H](c3ccc(-c4ccoc4)cc3)C3=C4CCC(=O)C=C4CCC3C1CCC21OCCC1=C(F)F (some centres unmarked) [EC-313]
Ratio of IC50's (progesterone receptor [1]; PR agonism / PR antagonism): 9.4 | Antagonist rel to RU486 (%) (progesterone receptor [1]; T47D cells, stimulant R5020): 240% | pIC50 (progesterone receptor [1]; T47D cells, stimulant R5020, read-out: IC50 Average of 2 expts): 9.30 | pIC50 (progesterone receptor [1]; Table 2 summary, read-out: PR antagonism (IC50)): 9.30 | ductal branching and terminal end buds in whole mount analysis [2]: dose dependently reduced | progestational activity (McPhail test) ([3]; estradiol-primed immature female rabbit): active both as a progestin agonist and antagonist | antiprogestational activity (anti-McPhail test) ([3]; immature female rabbit): active both as a progestin agonist and antagonist | PR regulated genes amphiregulin (AREG) and RANKL in mammary glands ([4]; higher dose): significantly inhibited | PR regulated genes amphiregulin (AREG) and RANKL in mammary glands ([4]; lower doses): upregulated in a moderate fashion | E2 regulated genes cyclin D1 and PS2 in mammary glands ([4]; treatment combined with E2): downregulated | ER-/PR balance vagina.: dose at which the dominance is seen (guinea pig [5]; guinea pig): ≧0.1 mg | Classification (guinea pig [5]; guinea pig model): mesoprogestin | Uterine Weight at max. dose (10.mg/day s.c.) (guinea pig [5]; guinea pig, 10 mg/day s.c.): 1.13 | ER-/PR balance vagina. (guinea pig [5]; guinea pig, at max. dose (10.mg/day s.c.)): PR-domin. | Ovary (CL) (guinea pig [5]; guinea pig, at max. dose (10.mg/day s.c.), CL = corpora lutea): degenerated | E2 stimulated uterine weight ([6]; 0.1 mg/kg): reduced by two fold | E2 stimulated uterine weight ([6]; 1.0 mg/kg): three fold | Classification (previous findings, Nickisch et al, 2013) (guinea pig [7]): mesoprogestin | Agonist rel to R5020 (%) (progesterone receptor [8]): 7.8% | pEC50 (progesterone receptor [8]; stimulant R5020, read-out: EC50): 8.32
